ChEMBL document CHEMBL3232784, “Fluorescent analog of OSW-1 and its cellular localization” (Bioorg Med Chem Lett, 2014)
Active and inactive are the calls of the source. The rule behind the calls is not given here.

Assays:
HeLa [1] = experiment: Cytotoxicity against human HeLa cells after 24 hrs by XTT assay; assay type: functional, cell-based
[2] = Cellular uptake in perinuclear region of cytoplasm in human HeLa cells at 1 uM after 1 hr by fluorescence microscopic analysis; assay type: ADME, cell-based
[3] = Cytotoxicity against human NCI60 cells; assay type: functional, cell-based
[4] = Cellular uptake in human HeLa cell endoplasmic reticulum at 1 uM by […] staining-based fluorescence microscopic analysis; assay type: ADME
HeLa [5] = experiment: Cellular uptake in human HeLa cells at 0.5 uM at 37 degC after 30 mins by fluorescence microscopic analysis; assay type: ADME, cell-based; conditions: 0.5 h
HeLa [6] = experiment: Cellular uptake in human HeLa cell lysate at 1 uM after 1 hr by fluorescence spectroscopic analysis; assay type: ADME, cell-based
[7] = Cellular uptake in human HeLa cell golgi complex at 1 uM by BODIPY TR-ceramide-based fluorescence microscopic analysis; assay type: ADME
[8] = Cellular uptake in human HeLa cell mitochondria at 1 uM by […]-based fluorescence microscopic analysis; assay type: ADME
[9] = Cellular uptake in perinuclear region of cytoplasm in human HeLa cells at 0.13 to 1 uM after 1 hr by fluorescence microscopic analysis; assay type: ADME, cell-based
[10] = Cellular uptake in perinuclear region of cytoplasm in human HeLa cells at 0.5 uM after 10 mins by fluorescence microscopic analysis; assay type: ADME, cell-based
HeLa [11] = experiment: Cellular uptake in human HeLa cells at 0.5 uM at 4 degC after 30 mins by fluorescence microscopic analysis; assay type: ADME, cell-based; conditions: 0.5 h

Structure (SMILES): COC(=O)CN(C)c1ccc(S(=O)(=O)N(C)C)c2nonc12
- inhibition (HeLa [1]): inactive
- Drug uptake [2]: Not Active

Structure (SMILES): COc1ccc(C(=O)O[C@H]2[C@H](O[C@@H]3[C@@H](OC(C)=O)[C@H](O[C@H]4C[C@H]5[C@@H]6CC=C7C[C@@H](O)CC[C@]7(C)[C@H]6CC[C@]5(C)[C@@]4(O)[C@H](C)C(=O)CCC(C)C)OC[C@@H]3O)OC[C@@H](O)[C@@H]2O)cc1
- IC50 (HeLa [1]): 2.6 nM
- IC50 [3]: 0.78 nM

Structure (SMILES): COc1ccc(C(=O)O[C@H]2[C@H](O[C@@H]3[C@@H](OC(C)=O)[C@H](O[C@H]4C[C@H]5[C@@H]6CC=C7C[C@@H](O)CC[C@]7(C)[C@H]6CC[C@]5(C)[C@@]4(O)[C@H](C)C(=O)CCC(C)C)OC[C@@H]3O)OC[C@@H](O)[C@@H]2OC(=O)CN(C)c2ccc(S(=O)(=O)N(C)C)c3nonc23)cc1
- IC50 (HeLa [1]): 5 nM
- Drug uptake [4]: Active
- Drug uptake (HeLa [5]): Active
- Drug uptake (HeLa [6]): Active
- Drug uptake [7]: Active
- Drug uptake [8]: Not Active
- Drug uptake [9]: Active
- Drug uptake [10]: Active
- Drug uptake (HeLa [11]): Not Active
